Among the data in PubChem BioAssay AID1745844 (Carcinogenic Potency Database (CPDB), 2022) are TD50 and carcinogen call values, retold here.

In the data set the test system is rodent lifetime carcinogenesis bioassay, tumor incidence TD50. The data set can be described thus: carcinogenic potency in animals, long-term in vivo studies, CPDB compilation (AID 1745844).

Each structure is given as a SMILES string. Active and inactive are the calls of the source. The rule behind the calls is not given here.

Turning to `CNNC`, the TD50 is, setting by setting: (hamster, strain Syrian Golden, females, in drinking water, site: blood vessels, lesion: angiosarcoma, dosed 67 weeks, study length 67 weeks) 0.156 mg/kg/day; (hamster, strain Syrian Golden, females, in drinking water, site: cecum, lesion: adenocarcinoma, dosed 67 weeks, study length 67 weeks) 2.84 mg/kg/day; (hamster, strain Syrian Golden, females, in drinking water, site: cecum, lesion: polypoid adenoma, dosed 67 weeks, study length 67 weeks) 2.08 mg/kg/day; (hamster, strain Syrian Golden, females, in drinking water, site: cecum, lesion: several types, types named in the paper, dosed 67 weeks, study length 67 weeks) 0.864 mg/kg/day; (hamster, strain Syrian Golden, females, in drinking water, site: heart, lesion: angiosarcoma, dosed 67 weeks, study length 67 weeks) 2.13 mg/kg/day; (hamster, strain Syrian Golden, females, in drinking water, site: liver, lesion: angiosarcoma, dosed 67 weeks, study length 67 weeks) 0.156 mg/kg/day. The TD50 by setting is: (hamster, strain Syrian Golden, females, in drinking water, site: liver, lesion: hepatoma, dosed 67 weeks, study length 67 weeks) 1.4 mg/kg/day; (hamster, strain Syrian Golden, females, in drinking water, site: liver, lesion: several types, types named in the paper, dosed 67 weeks, study length 67 weeks) 0.917 mg/kg/day; (hamster, strain Syrian Golden, females, in drinking water, site: lung, lesion: angiosarcoma, dosed 67 weeks, study length 67 weeks) 0.395 mg/kg/day; (hamster, strain Syrian Golden, females, in drinking water, site: muscle, lesion: angiosarcoma, dosed 67 weeks, study length 67 weeks) 1.03 mg/kg/day; (hamster, strain Syrian Golden, females, in drinking water, site: pancreas, lesion: angiosarcoma, dosed 67 weeks, study length 67 weeks) 18.4 mg/kg/day; (hamster, strain Syrian Golden, males, in drinking water, site: blood vessels, lesion: angiosarcoma, dosed 71 weeks, study length 71 weeks) 0.211 mg/kg/day. In addition, the TD50 (hamster, strain Syrian Golden, males, in drinking water, site: cecum, lesion: polypoid adenoma, dosed 71 weeks, study length 71 weeks) was 2.42 mg/kg/day; the TD50 (hamster, strain Syrian Golden, males, in drinking water, site: heart, lesion: angiosarcoma, dosed 71 weeks, study length 71 weeks) is 2.49 mg/kg/day; the TD50 (hamster, strain Syrian Golden, males, in drinking water, site: liver, lesion: angiosarcoma, dosed 71 weeks, study length 71 weeks) was 0.211 mg/kg/day; the TD50 (hamster, strain Syrian Golden, males, in drinking water, site: liver, lesion: several types, types named in the paper, dosed 71 weeks, study length 71 weeks) is 2.05 mg/kg/day; the TD50 (hamster, strain Syrian Golden, males, in drinking water, site: lung, lesion: angiosarcoma, dosed 71 weeks, study length 71 weeks) was 0.685 mg/kg/day; the TD50 (hamster, strain Syrian Golden, males, in drinking water, site: muscle, lesion: angiosarcoma, dosed 71 weeks, study length 71 weeks) was 1.36 mg/kg/day. Further, the TD50 is, setting by setting: (hamster, strain Syrian Golden, males, in drinking water, site: pancreas, lesion: angiosarcoma, dosed 71 weeks, study length 71 weeks) 18.6 mg/kg/day; (mouse, strain Swiss albino, females, in drinking water, site: liver, lesion: hepatoma, dosed 52 weeks, study length 52 weeks) 13.9 mg/kg/day; (mouse, strain Swiss albino, females, in drinking water, site: lung, lesion: adenoma, dosed 52 weeks, study length 52 weeks) 0.559 mg/kg/day; (mouse, strain Swiss albino, males, in drinking water, site: blood vessels, lesion: angiosarcoma, dosed 52 weeks, study length 52 weeks) 0.102 mg/kg/day; (mouse, strain Swiss albino, males, in drinking water, site: fat, lesion: angiosarcoma, dosed 52 weeks, study length 52 weeks) 0.215 mg/kg/day; (mouse, strain Swiss albino, males, in drinking water, site: liver, lesion: angiosarcoma, dosed 52 weeks, study length 52 weeks) 0.377 mg/kg/day. In addition, the TD50 (mouse, strain Swiss albino, males, in drinking water, site: lung, lesion: several types, types named in the paper, dosed 52 weeks, study length 52 weeks) is 1.81 mg/kg/day; the TD50 (mouse, strain Swiss albino, males, in drinking water, site: lymph node, lesion: angiosarcoma, dosed 52 weeks, study length 52 weeks) amounted to 1.02 mg/kg/day; the TD50 (mouse, strain Swiss albino, males, in drinking water, site: muscle, lesion: angiosarcoma, dosed 52 weeks, study length 52 weeks) is 0.203 mg/kg/day; the TD50 (mouse, strain Swiss albino, males, in drinking water, site: paraepididymal tissue, lesion: angiosarcoma, dosed 52 weeks, study length 52 weeks) was found to be 0.337 mg/kg/day; the TD50 (mouse, strain Swiss albino, males, in drinking water, site: pararenal tissue, lesion: angiosarcoma, dosed 52 weeks, study length 52 weeks) came out at 0.18 mg/kg/day; the TD50 (mouse, strain Swiss albino, males, in drinking water, site: subcutaneous tissue, lesion: angiosarcoma, dosed 52 weeks, study length 52 weeks) amounted to 0.781 mg/kg/day. The carcinogen call (mouse, strain Swiss albino, females, in drinking water, site: blood vessels, lesion: angiosarcoma, dosed 52 weeks, study length 52 weeks) was “positive”.
Consider `O=C1OC2(c3ccccc31)c1cc(I)c(O)c(I)c1Oc1c2cc(I)c(O)c1I`, for which the carcinogen call runs as follows: (mouse, strain Charles River CD1, females, in feed, site: any site (literature study), lesion: benign tumor, dosed 104 weeks, study length 104 weeks) “negative (inactive)”; (mouse, strain Charles River CD1, females, in feed, site: any site (literature study), lesion: malignant tumor, dosed 104 weeks, study length 104 weeks) “negative (inactive)”; (mouse, strain Charles River CD1, females, in feed, site: any site (literature study), lesion: several types, types named in the paper, dosed 104 weeks, study length 104 weeks) “negative (inactive)”; (rat, strain Osborne-Mendel, both sexes, by gavage, site: any site (literature study), lesion: malignant tumor, dosed 85 weeks, study length 104 weeks) “negative (inactive)”; (rat, strain Osborne-Mendel, both sexes, by gavage, site: liver, lesion: one or several types, types not named, dosed 85 weeks, study length 104 weeks) “negative (inactive)”; (rat, strain Osborne-Mendel, females, in feed, site: any site (literature study), lesion: several types, types named in the paper, dosed 104 weeks, study length 104 weeks) “negative (inactive)”. Further, the carcinogen call is, setting by setting: (rat, strain Slc-Wistar, females, in feed, site: any site (literature study), lesion: several types, types named in the paper, dosed 52 weeks, study length 52 weeks) “negative (inactive)”; (rat, strain Slc-Wistar, females, in feed, site: liver, lesion: one or several types, types not named, dosed 52 weeks, study length 52 weeks) “negative (inactive)”; (rat, strain Slc-Wistar, males, in feed, site: any site (literature study), lesion: several types, types named in the paper, dosed 52 weeks, study length 52 weeks) “negative (inactive)”; (rat, strain Slc-Wistar, males, in feed, site: liver, lesion: one or several types, types not named, dosed 52 weeks, study length 52 weeks) “negative (inactive)”; (rat, strain Sprague-Dawley, females, in feed, site: any site (literature study), lesion: one or several types, types not named, dosed 52 weeks, study length 52 weeks) “negative (inactive)”; (rat, strain Sprague-Dawley, females, in feed, site: liver, lesion: one or several types, types not named, dosed 52 weeks, study length 52 weeks) “negative (inactive)”. Moreover, the TD50 is 3140 mg/kg/day (inactive) (mouse, strain Charles River CD1, males, in feed, site: all sites, lesion: lymphocytic lymphoma, dosed 104 weeks, study length 104 weeks); 25900 mg/kg/day (inactive) (mouse, strain Charles River CD1, males, in feed, site: any site (literature study), lesion: benign tumor, dosed 104 weeks, study length 104 weeks); 87600 mg/kg/day (inactive) (mouse, strain Charles River CD1, males, in feed, site: any site (literature study), lesion: malignant tumor, dosed 104 weeks, study length 104 weeks); 17000 mg/kg/day (mouse, strain Charles River CD1, males, in feed, site: any site (literature study), lesion: several types, types named in the paper, dosed 104 weeks, study length 104 weeks); 122 mg/kg/day (inactive) (rat, strain Osborne-Mendel, both sexes, by gavage, site: all sites, lesion: lymphosarcoma, dosed 85 weeks, study length 104 weeks); 14100 mg/kg/day (inactive) (rat, strain Osborne-Mendel, both sexes, in feed, site: any site (literature study), lesion: malignant tumor, dosed 86 weeks, study length 104 weeks). Besides, the TD50 is 84900 mg/kg/day (inactive) (rat, strain Osborne-Mendel, both sexes, in feed, site: liver, lesion: hepatoma, dosed 86 weeks, study length 104 weeks) and 4810 mg/kg/day (inactive) (rat, strain Osborne-Mendel, males, in feed, site: any site (literature study), lesion: several types, types named in the paper, dosed 104 weeks, study length 104 weeks).
For the compound `O=NN1CCC(=O)NC1=O`, the TD50 was 0.13 mg/kg/day (rat, strain MRC-Wistar, females, in drinking water, site: any site (literature study), lesion: several types, types named in the paper, dosed 41 weeks, study length 70 weeks); 0.104 mg/kg/day (rat, strain MRC-Wistar, females, in drinking water, site: liver, lesion: hepatocellular carcinoma, dosed 41 weeks, study length 70 weeks); 0.104 mg/kg/day (rat, strain MRC-Wistar, females, in drinking water, site: liver, lesion: several types, types named in the paper, dosed 41 weeks, study length 70 weeks); 0.125 mg/kg/day (rat, strain MRC-Wistar, males, in drinking water, site: any site (literature study), lesion: several types, types named in the paper, dosed 41 weeks, study length 70 weeks); 0.0932 mg/kg/day (rat, strain MRC-Wistar, males, in drinking water, site: liver, lesion: hepatocellular carcinoma, dosed 41 weeks, study length 70 weeks); 0.0932 mg/kg/day (rat, strain MRC-Wistar, males, in drinking water, site: liver, lesion: several types, types named in the paper, dosed 41 weeks, study length 70 weeks).
With `CCCCCCCC(=O)OCC(COC(=O)CCCCCCC)OC(=O)CCCCCCC`, the TD50 runs as follows: (rat, strain Fischer 344, males, by gavage, site: any site (literature study), lesion: several types, types named in the paper, dosed 104 weeks, study length 104 weeks) 69900 mg/kg/day; (rat, strain Fischer 344, males, by gavage, site: forestomach, lesion: squamous-cell papilloma, dosed 104 weeks, study length 104 weeks) 15700 mg/kg/day; (rat, strain Fischer 344, males, by gavage, site: liver, lesion: hepatocellular adenoma + hepatoblastoma + hepatocellular carcinoma, dosed 104 weeks, study length 104 weeks) 37100 mg/kg/day; (rat, strain Fischer 344, males, by gavage, site: liver, lesion: hepatocellular adenoma, dosed 104 weeks, study length 104 weeks) 37100 mg/kg/day; (rat, strain Fischer 344, males, by gavage, site: pancreas, lesion: acinar-cell adenoma, dosed 104 weeks, study length 104 weeks) 5490 mg/kg/day (inactive).
Regarding `O=C1OC(=O)c2ccccc21`, the carcinogen call is, setting by setting: (mouse, strain B6C3F1, females, in feed, site: any site (literature study), lesion: several types, types named in the paper, dosed 104 weeks, study length 104 weeks) “negative (inactive)”; (mouse, strain B6C3F1, males, in feed, site: any site (literature study), lesion: several types, types named in the paper, dosed 104 weeks, study length 104 weeks) “negative (inactive)”; (rat, strain Fischer 344, males, in feed, site: any site (literature study), lesion: several types, types named in the paper, dosed 105 weeks, study length 105 weeks) “negative (inactive)”. Further, the TD50 is, setting by setting: (mouse, strain B6C3F1, males, in feed, site: liver, lesion: hepatocellular adenoma + hepatocellular carcinoma + neoplastic nodule, dosed 104 weeks, study length 104 weeks) 7460 mg/kg/day; (rat, strain Fischer 344, females, in feed, site: any site (literature study), lesion: several types, types named in the paper, dosed 105 weeks, study length 105 weeks) 4500 mg/kg/day; (rat, strain Fischer 344, females, in feed, site: lung, lesion: alveolar/bronchiolar adenoma, dosed 105 weeks, study length 105 weeks) 6230 mg/kg/day (inactive).
